Data from patent US10941114B2, “Small molecule lipid II inhibitors” (University Of Maryland, Baltimore, priority 2015, dated 2021).
Structures can show the parent of a compound that is named as a salt. Where two headings read alike, the source gives them in different places.

Assays:
[1] = Surface Plasmon Resonance determination of Lipid II binding; details: SPR; for Lipid II binding affinity: FIG. 16
Method: Short-chain water-soluble LII containing a lipid tail of three isoprene units (3-LII) was generated and purified essentially according to methods known in the art. See Breukink et al., Lipid II is an intrinsic component of the pore induced by nisin in bacterial membranes. J. Biol. Chem. 278(22):19898-19903, 2003, the contents of which are hereby incorporated by reference. Typically, M. flavus vesicles (120 μmol lipid-Pi) were incubated together with 500 μmol UDP-GlcNAc, 500 μmol UDP-MurNAC-pentapeptide and 400 μmol farnesyl phosphate in 100 mM Tris-HCl pH 8.0, 5 mM MgCl2. The incubation period was approximately two hours at room temperature for 3-LII (3-P). The synthesis of 3-Lipid II was followed by RP-8 reversed phase TLC (Merck™) developed with 75% methanol. For purification, the membranes were removed by centrifugation at 40,000×g; the supernatant was collected and loaded on a C18 HPLC column and eluted with a linear gradient from 50 mM ammonium bicarbonate to 100% methanol in 30 minutes. Farnesyl-Lipid II (3-Lipid II) eluted at approximately 60% methanol. Its identity was confirmed by mass spectroscopy.
Surface Plasmon Resonance binding experiments were carried out on a BIAcore T100 system (BIAcore™ Inc., Piscataway, N.Y.) at 25° C. The assay buffer was 10 mM HEPES, 150 mM NaCl, 0.05% surfactant P20, pH 7.4 (+3 mM EDTA) supplemented with 10% DMSO. 3-Lipid II (50 RUs) was immobilized on CMS sensor chips using the amine-coupling chemistry recommended by the manufacturer. For initial determination of binding, compounds were introduced into the flow-cells (30.mu·1/min) in the running buffer at 10 μM. Resonance signals were corrected for nonspecific binding by subtracting the background of the control flow-cell. Binding to immobilized 3-LII on the chip surface was determined and scored “yes” in Table 5 when more than 20 Resonance Units or RUs were detected. Detection of less than 20 RUs was scored as “no”, meaning no significant binding to LII. After each analysis, the sensor chip surfaces were regenerated with 50 mM NaOH for 30 seconds at a flow rate 100 μL/min, and equilibrated with the buffer prior to next injection. For binding kinetics studies, binding isotherms were analyzed with manufacturer-supplied software for BIAcore™ T100.

Staphylococcus aureus = assay: Antibacterial activity assay (MIC, broth dilution); type: cell-based; parameters: S. aureus Killing / Bacterial Killing S. aureus: unit not given here; details: for Bacterial Killing S. aureus: determined as in Example 1E (MIC); for MIC: Staphylococcus aureus
Enterococcus faecium = assay: Antibacterial activity assay (MIC, broth dilution); type: cell-based; parameters: Bacterial Killing E. faecium: unit: ug/mL; details: for Bacterial Killing E. faecium: determined as in Example 1E (MIC)
Method: (§1) Determination of the Minimal Inhibitory Concentrations (MIC) by dilution was carried out by broth dilution according to CLSI standards. See CLSI, Methods for Dilution Antimicrobial Susceptibility Tests for Bacteria That Grow Aerobically; Approved Standard—Eighth Edition. 2009, the contents of which are hereby incorporated by reference. Briefly, the minimum inhibitory concentration MIC, is the lowest concentration of a compound that prevents visible growth of a bacterium, in other words at which it has bacteriostatic activity.
For these tests, cation-adjusted Mueller Hinton broth, containing 10% brain-heart infusion (BHI) was used. Concentrations (MIC) are given in μg/mL. The compound was […].
(§2) Compounds were tested for MIC by methods known in the art and described in CLSI, Methods for Dilution Antimicrobial Susceptibility Tests for Bacteria That Grow Aerobically; Approved Standard—Tenth Edition. CLSI document M07-A10. Wayne, Pa.: Clinical and Laboratory Standards Institute, 2015, which is hereby incorporated by reference for these methods.
(§3) Selected compounds also were tested by broth microdilution methods known in the art and described in CLSI, Methods for Dilution Antimicrobial Susceptibility Tests for Bacteria That Grow Aerobically; Approved Standard—Tenth Edition. CLSI document M07-A10. Wayne, Pa.: Clinical and Laboratory Standards Institute, 2015, which is hereby incorporated by reference. Structures of selected compounds in the tables are listed below.

Escherichia coli = assay: Antibacterial activity assay (MIC, broth dilution); type: cell-based; details: determined as in Example 1E (MIC)
Acinetobacter baumannii = assay: Antibacterial activity assay (MIC, broth dilution); type: cell-based; details: for MIC: Acinetobacter baumannii
Method: as §1, §2, §3

[2] = Cytotoxicity testing (CC50, MTS assay); details: human, HeLa cells
[3] = Maximum Tolerated Dose (MTD) and in vivo toxicity at the MTD; details: dose-escalation; final MTD
[4] = Pharmacokinetic study in mice (plasma concentration by LC/MS/MS)
[5] = mouse, in vivo, iv, 10 mg/kg
HeLa cells = assay: Cytotoxicity testing (CC50, MTS assay); details: HeLa cells
[6] = single dose of 10 mg/kg by intravenous injection in CD1 mice (n=3)
[7] = S. aureus USA300 (MRSA), average of two replicates
[8] = E. faecium EF1509 (VRE), average of two replicates
[9] = A. baumannii 2-2-2 (colistin-resistant clinical isolate), average of two replicates
[10] = text: E. faecium EF1509 (VRE), footnote: Enterococcus faecalis ATCC 1509, average of two replicates
[11] = single dose of 10 mg/kg by intravenous injection

SMILES	Bacterial Killing S. aureus (Staphylococcus aureus)	Bacterial Killing E. faecium (Enterococcus faecium)	Bacterial Killing E. coli (Escherichia coli)	Lipid II binding affinity [1]	MIC SA (Staphylococcus aureus; [7]) [µg/mL]	MIC EF (Enterococcus faecium; [8]) [µg/mL]	MIC AB (Acinetobacter baumannii; [9]) [µg/mL]	AUCInf [5] [ng·h/mL]	MRT [5] [h]	T1/2 [5] [h]	CC50 (HeLa cells; exposure 24 hour) [µg/mL]	also measured
CN(C)c1ccc(/C=C/c2cc(-c3ccc(Cl)cc3)cc(-c3ccc(Cl)cc3)[o+]2)cc1 [(E)-2,4-bis(4-chlorophenyl)-6-(4-(dimethylamino)styryl)pyrylium boron tetrafluoride salt]	–	–	–	–	–	–	–	–	–	–	–	Lipid II Binding ([1]; immobilized 3-LII, compounds at 10 μM): yes (scored “yes” in Table 5 when more than 20 Resonance Units or RUs were detected); S. aureus Killing (Staphylococcus aureus; anti-bacterial activity (MIC), strain not stated): 32
CN1/C(=C/C=C/c2cc(-c3ccc(Cl)cc3)cc(-c3ccc(Cl)cc3)[o+]2)C(C)(C)c2ccccc21 [Compound 7jc42-1]	8	32	>64	–	–	–	–	–	–	–	–	–
CN1/C(=C/C=C/c2cc(-c3ccc(Br)cc3)cc(-c3ccc(Br)cc3)[o+]2)C(C)(C)c2ccccc21 [Compound 7jc42-2]	32	32	>64	–	–	–	–	–	–	–	–	–
CN(C)c1ccc(/C=C/c2cc(-c3cccc(F)c3)cc(-c3cccc(F)c3)[o+]2)cc1 [Compound 7jc46-1]	1	2	>64	–	–	–	–	–	–	–	–	–
CN(C)c1ccc(/C=C/C=C/c2cc(-c3ccc(F)cc3)cc(-c3ccc(F)cc3)[o+]2)cc1 [Compound 7jc47-2]	1	1	>64	–	–	–	–	–	–	–	–	–
Cc1ccc(-c2cc(-c3ccc(Cl)cc3)cc(/C=C/c3ccc(N(C)CCO)cc3)[n+]2C)cc1.[I-] [Compound 9p, (E)-4-(4-chlorophenyl)-2-(4-((2-hydroxyethyl)(methyl)amino)styryl)-1-methyl-6-(p-tolyl)pyridin-1-ium iodide]	–	–	–	–	–	–	–	–	–	–	–	MIC (Staphylococcus aureus; S. aureus USA300 (MRSA), average of two replicates, read-out: MIC SA): 0.25 µg/mL; MIC (Staphylococcus aureus; Table 16, CLSI M07-A10 dilution method, read-out: MIC S. aureus): 0.25 µg/mL; MIC (Enterococcus faecium; ATCC 1509 / VRE, text: E. faecium EF1509 (VRE), footnote: Enterococcus faecalis ATCC 1509, average of two replicates, read-out: MIC EF): 2 µg/mL; MIC (Enterococcus faecium; Enterococcus faecium, Table 16, CLSI M07-A10 dilution method, read-out: MIC E. faecium): 2 µg/mL; MIC (Acinetobacter baumannii; A. baumannii 2-2-2 (colistin-resistant clinical isolate), average of two replicates, read-out: MIC AB): 16 µg/mL; MIC (Acinetobacter baumannii; Table 16, CLSI M07-A10 dilution method, read-out: MIC A. baumannii): 16 µg/mL; CC50 at 24 h [2]: 5.5 µg/mL
CN(CCC#N)c1ccc(/C=C/c2cc(-c3ccc(Br)cc3)cc(-c3ccc(Br)cc3)[n+]2C)cc1.[I-] [Compound 12c]	–	–	–	–	–	–	–	–	–	–	–	Maximum Tolerated Dose (MTD) [3]: 40 mg/kg; AUCInf [4, 6]: 2137 ± 455 ng·h/mL; AUCextrap [4, 6]: 12.9 ± 5.6%; Cl3 [4, 6]: 80.3 ± 16.6 mL/min/kg; Cmax [4, 6]: 3975 ± 739 ng/mL; MRT [4, 6]: 9.13 ± 3.17 h; T1/2 [4, 6]: 11 ± 2.37 h; Vss—obs [4, 6]: 46.3 ± 23.3 L/kg
CC(C)C[n+]1c(/C=C/c2ccc(N(C)C)cc2)cc(-c2ccc(Br)cc2)cc1-c1ccc(Br)cc1.[I-] [EL-1]	–	–	–	below micromolar	0.5	1	4	1528 ± 286	4.42 ± 0.72	8.33 ± 0.84	5	AUCextrap [5]: 5.15 ± 1.28%; Cl3 [5]: 111 ± 20 mL/min/kg; Cl—obs [5]: 111 ± 20 mL/min/kg; Maximum Tolerated Dose (MTD) [3]: 25 mg/kg
CN(C)c1ccc(/C=C/c2cc(-c3ccc(Br)cc3)cc(-c3ccc(Br)cc3)[n+]2C)cc1.[I-] [EL-2]	–	–	–	–	1	1	8	–	–	–	5	MIC EF (Enterococcus faecium; [10]): 1 µg/mL; CC50 (HeLa cells; exposure 24 hours): 5 µg/mL
CC(C)[n+]1c(/C=C/c2ccc(N(C)C)cc2)cc(-c2ccc(Br)cc2)cc1-c1ccc(Br)cc1.[I-] [EL-3]	–	–	–	–	2	2	16	–	–	–	9	–
CN(C)c1ccc(/C=C/c2cc(-c3ccc(Br)cc3)cc(-c3ccc(Br)cc3)[n+]2C2CCCCC2)cc1.[I-] [EL-5]	–	–	–	below micromolar	1	0.25	0.5	4125 ± 780	18.8 ± 1.62	23.8 ± 0.84	4	Cl—obs [5]: 41.29 ± 7 mL/min/kg; AUCextrap [4, 11]: 27.2 ± 1.6%; AUClast/D [4, 11]: 300 ± 58 ng·h/mL
Cc1ccc(-c2cc(-c3ccc(Br)cc3)cc(/C=C/c3ccc(N(C)C)cc3)[n+]2C)cc1.[I-] [EL-8]	–	–	–	below micromolar	0.5	–	4	764 ± 187	1.74 ± 0.49	9.4 ± 1.01	–	MIC EF (Enterococcus faecium; [10]): 4 µg/mL; AUClast/D [5]: 729 ± 179 mg·h/mL; CC50 (HeLa cells; exposure 24 hours): 12 µg/mL; AUCextrap [4, 11]: 4.63 ± 0.51%; AUClast/D [4, 11]: 72.9 ± 17.9 ng·h/mL
Cc1ccc(/C=C/c2cc(-c3ccc(Br)cc3)cc(-c3ccc(Br)cc3)[n+]2C)cc1.[I-] [EL-11]	–	–	–	below micromolar	1	–	>64	2137 ± 455	9.13 ± 3.17	11 ± 2.37	–	MIC EF (Enterococcus faecium; [10]): 4 µg/mL; AUClast/D [5]: 1853 ± 372 mg·h/mL; Cl—obs [5]: 80.3 ± 16.6 mL/min/kg; CC50 (HeLa cells; exposure 24 hours): 5 µg/mL; AUCextrap [4, 11]: 12.9 ± 5.6%; AUClast/D [4, 11]: 185.3 ± 37.3 ng·h/mL
